Drawing on US8785488B2 (Exelixis Patent Company LLC, priority 2009, dated 2014), this text covers EC50 for 29 compounds.

In this assay the target is T1, human TGR5 (h-TGR5) (Homo sapiens, UniProt Q8TDU6).
T1 construct: expressed in transfected cells
T1 sequence (Q8TDU6 1-330): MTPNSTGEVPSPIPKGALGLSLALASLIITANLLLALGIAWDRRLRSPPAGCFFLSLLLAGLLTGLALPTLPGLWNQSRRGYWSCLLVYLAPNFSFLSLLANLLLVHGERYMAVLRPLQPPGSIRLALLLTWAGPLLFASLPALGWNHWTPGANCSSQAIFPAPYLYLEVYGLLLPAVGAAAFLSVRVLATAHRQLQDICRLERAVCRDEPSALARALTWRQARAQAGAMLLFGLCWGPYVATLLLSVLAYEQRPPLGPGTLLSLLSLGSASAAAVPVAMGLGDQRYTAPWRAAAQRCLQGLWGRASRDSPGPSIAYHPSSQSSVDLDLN
The experiment in a line: TGR5/CRE-Luciferiase Assay (HEK 293 hTGR5/CRE-Luc cells). It counts as cell-based. The note with it: h-TGR5 CRE-Luc EC50, Table 1; read-out: CRE-Luc (EC50). An outline of the steps: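 HEK293 cells stably carrying hTGR5 and a CRE-luciferase reporter were exposed to serially diluted compounds (diluted in DMEM with 5% DMSO) for 6 h. Cells were then lysed in luciferase buffer, luminescence was read, and EC50 values were derived from dose-response curves.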

Turning to `CC(C)(c1ccc(Cl)c(Cl)c1)c1cnc(SCc2ccc(F)c(C(=O)NCCc3c[nH]cn3)c2)n1-c1ccc(F)cc1` [5-[({5-[1-(3,4-dichlorophenyl)-1-methylethyl]-1-(4-fluorophenyl)-1H-imidazol-2-yl}thio)methyl]-2-fluoro-N-[2-(1H-imidazol-4-yl)ethyl]benzamide], the EC50 fell in the range of 100 to 1000 nM.

In the case of `COc1c(Cl)cc(C(C)(C)c2cnc(SCc3ccc(F)cc3Cl)n2-c2ccc(F)cc2)cc1Cl`, the EC50 is less than 100 nM.

For `COCCNC(=O)c1cc(CSc2ncc(C(C)(C)c3ccc(Cl)c(Cl)c3)n2-c2ccc(F)cc2)ccc1F` [5-[({5-[1-(3,4-dichlorophenyl)-1-methylethyl]-1-(4-fluorophenyl)-1H-imidazol-2-yl}thio)methyl]-2-fluoro-N-[2-(methyloxy)ethyl]benzamide], the EC50 is 100 to 1000 nM.

Take `CC(C)(c1ccc(Cl)c(Cl)c1)c1cnc(SCc2ccc(Cl)c(C(=O)O)c2)n1-c1ccc(F)cc1` [2-chloro-5-[({5-[1-(3,4-dichlorophenyl)-1-methylethyl]-1-(4-fluorophenyl)-1H-imidazol-2-yl}thio)methyl]benzoic acid]: the EC50 was 100 to 1000 nM.

On to `CC(C)(c1ccc(Cl)c(Cl)c1)c1cnc(COc2ccc(Cl)cn2)n1-c1ccc(F)cc1` [5-chloro-2-[({5-[1-(3,4-dichlorophenyl)-1-methylethyl]-1-(4-fluorophenyl)-1H-imidazol-2-yl}methyl)oxy]pyridine], for which the EC50 fell in the range of 100 to 1000 nM.

`CC(C)(c1ccc(Cl)c(Cl)c1)c1cnc(SCc2ccc(F)c(C#N)c2)n1-c1ccc(F)cc1` [5-[({5-[1-(3,4-dichlorophenyl)-1-methylethyl]-1-(4-fluorophenyl)-1H-imidazol-2-yl}thio)methyl]-2-fluorobenzonitrile]: the EC50 fell in the range of 100 to 1000 nM.

On to `COc1c(Cl)cc(C(C)(C)c2cnc(SCc3ccc(S(N)(=O)=O)cc3Cl)n2-c2ccc(F)cc2)cc1Cl` [3-chloro-4-({[5-{1-[3,5-dichloro-4-(methyloxy)phenyl]-1-methylethyl}-1-(4-fluorophenyl)-1H-imidazol-2-yl]thio}methyl)benzenesulfonamide], for which the EC50 is less than 100 nM.

As to `CC(C)(c1ccc(Cl)c(Cl)c1)c1cnc(SCc2c(F)cccc2Cl)n1-c1ccc(Cl)cc1Cl` [2-{[(2-chloro-6-fluorophenyl)methyl]thio}-1-(2,4-dichlorophenyl)-5-[1-(3,4-dichlorophenyl)-1-methylethyl]-1H-imidazole], the concentration for a half-maximal effect (EC50) was in the range of 1000 to 10000 nM.

Turning to `COc1ccc(-c2cnc(SCc3ccc(F)cc3Cl)n2-c2ccc(F)cc2)cc1OC` [5-[3,4-bis(methyloxy)phenyl]-2-{[(2-chloro-4-fluorophenyl)methyl]thio}-1-(4-fluorophenyl)-1H-imidazole], the EC50 was in the range of 1000 to 10000 nM.

With `COc1ccc(C(C)(C)c2cnc(SCc3ccc(C(=O)O)cc3F)n2-c2ccc(F)cc2)cc1Cl` [4-({[5-{1-[3-chloro-4-(methyloxy)phenyl]-1-methylethyl}-1-(4-fluorophenyl)-1H-imidazol-2-yl]thio}methyl)-3-fluorobenzoic acid], the EC50 was 100 to 1000 nM.

Regarding `COc1ccc(C(C)(C)c2cnc(CNCc3ccc(Cl)c(F)c3)n2-c2ccc(F)cc2)cc1OC` [1-[5-{1-[3,4-bis(methyloxy)phenyl]-1-methylethyl}-1-(4-fluorophenyl)-1H-imidazol-2-yl]-N-[(4-chloro-3-fluorophenyl)methyl]methanamine], the EC50 was less than 100 nM.

With `COc1c(Cl)cc(C(C)(C)c2cnc(SCc3ccc(S(N)(=O)=O)cc3F)n2-c2ccc(F)cc2)cc1Cl` [4-({[5-{1-[3,5-dichloro-4-(methyloxy)phenyl]-1-methylethyl}-1-(4-fluorophenyl)-1H-imidazol-2-yl]thio}methyl)-3-fluorobenzenesulfonamide], the EC50 is less than 100 nM.

For `CC(C)(c1ccc(Cl)c(Cl)c1)c1cnc(C2CCN(S(C)(=O)=O)CC2)n1-c1ccc(F)cc1` [4-{5-[1-(3,4-dichlorophenyl)-1-methylethyl]-1-(4-fluorophenyl)-1H-imidazol-2-yl}-1-(methylsulfonyl)piperidine], the EC50 lay within 1000 to 10000 nM.

As to `CC(C)(c1ccc(NS(C)(=O)=O)cc1)c1cnc(SCc2c(F)cccc2Cl)n1-c1ccc(F)cc1` [N-(4-{1-[2-{[(2-chloro-6-fluorophenyl)methyl]thio}-1-(4-fluorophenyl)-1H-imidazol-5-yl]-1-methylethyl}phenyl)methanesulfonamide], the EC50 was 100 to 1000 nM.

Regarding `CC(C)(c1ccc(Cl)c(Cl)c1)c1cnc(CCc2ccc(S(=O)(=O)NC(=O)NN3CCCC3)cc2Cl)n1-c1ccc(F)cc1` [3-chloro-4-(2-{5-[1-(3,4-dichlorophenyl)-1-methylethyl]-1-(4-fluorophenyl)-1H-imidazol-2-yl}ethyl)-N-[(pyrrolidin-1-ylamino)carbonyl]benzenesulfonamide], the EC50 lay in the range of 1000 to 10000 nM.

Consider `CC(C)(c1ccc(Cl)c(S(N)(=O)=O)c1)c1cnc(SCc2c(F)cc(C(=O)O)cc2F)n1-c1ccc(F)cc1` [4-({[5-{1-[3-(aminosulfonyl)-4-chlorophenyl]-1-methylethyl}-1-(4-fluorophenyl)-1H-imidazol-2-yl]thio}methyl)-3,5-difluorobenzoic acid], for which the EC50 fell in the range of 1000 to 10000 nM.

As to `CC(C)(O)c1cc(CSc2ncc(C(C)(C)c3ccc(Cl)c(Cl)c3)n2-c2ccc(F)cc2)ccc1Cl` [2-{2-chloro-5-[({5-[1-(3,4-dichlorophenyl)-1-methylethyl]-1-(4-fluorophenyl)-1H-imidazol-2-yl}thio)methyl]phenyl}propan-2-ol], the EC50 is 100 to 1000 nM.

Take `CC(C)(c1ccc(Cl)c(Cl)c1)c1cnc(S(=O)(=O)Cc2c(F)cccc2Cl)n1-c1ccc(F)cc1F` [2-{[(2-chloro-6-fluorophenyl)methyl]sulfonyl}-5-[1-(3,4-dichlorophenyl)-1-methylethyl]-1-(2,4-difluorophenyl)-1H-imidazole]: the EC50 lay in the range of 100 to 1000 nM.

As to `CC(C)(c1ccc(Cl)c(Cl)c1)c1cnc(C2=CCN(S(C)(=O)=O)CC2)n1-c1ccc(F)cc1` [4-{5-[1-(3,4-dichlorophenyl)-1-methylethyl]-1-(4-fluorophenyl)-1H-imidazol-2-yl}-1-(methylsulfonyl)-1,2,3,6-tetrahydropyridine], the EC50 was 1000 to 10000 nM.

For `COc1ccc(C(C)(C)c2cnc(C(=O)Nc3ccc(Cl)c(Cl)c3)n2-c2ccc(F)cc2)cc1OC` [5-{1-[3,4-bis(methyloxy)phenyl]-1-methylethyl}-N-(3,4-dichlorophenyl)-1-(4-fluorophenyl)-1H-imidazole-2-carboxamide], the EC50 is 1000 to 10000 nM.

With `COc1ccc(C(C)(C)c2cnc(C(=O)N3CCOCC3)n2-c2ccc(F)cc2)cc1OC` [4-{[5-{1-[3,4-bis(methyloxy)phenyl]-1-methylethyl}-1-(4-fluorophenyl)-1H-imidazol-2-yl]carbonyl}morpholine], the EC50 fell in the range of 1000 to 10000 nM.

In the case of `CC(C)(Oc1cc(CSc2ncc(C(C)(C)c3ccc(Cl)c(Cl)c3)n2-c2ccc(F)cc2)ccc1F)C(=O)O` [2-({5-[({5-[1-(3,4-dichlorophenyl)-1-methylethyl]-1-(4-fluorophenyl)-1H-imidazol-2-yl}thio)methyl]-2-fluorophenyl}oxy)-2-methylpropanoic acid], the EC50 was in the range of 100 to 1000 nM.

As to `CC(C)(c1ccc(Cl)c(Cl)c1)c1cnc(S(=O)(=O)Cc2ccc(Cl)cc2Cl)n1-c1ccc(F)cc1` [5-[1-(3,4-dichlorophenyl)-1-methylethyl]-2-{[(2,4-dichlorophenyl)methyl]sulfonyl}-1-(4-fluorophenyl)-1H-imidazole], the EC50 lay within 1000 to 10000 nM.

`CC(C)(c1ccc(Cl)c(Cl)c1)c1cnc(SCc2ccc(F)c(-c3nnn[nH]3)c2)n1-c1ccc(F)cc1` [5-{5-[({5-[1-(3,4-dichlorophenyl)-1-methylethyl]-1-(4-fluorophenyl)-1H-imidazol-2-yl}thio)methyl]-2-fluorophenyl}-1H-tetrazole]: the EC50 lay within 100 to 1000 nM.

In the case of `CC(C)(c1ccc(F)c(F)c1)c1cnc(S(=O)(=O)Cc2ccc(F)cc2Cl)n1-c1ccc(F)cc1` [2-{[(2-chloro-4-fluorophenyl)methyl]sulfonyl}-5-[1-(3,4-difluorophenyl)-1-methylethyl]-1-(4-fluorophenyl)-1H-imidazole], the EC50 was in the range of 1000 to 10000 nM.

As to `CC(C)(c1ccc(S(C)(=O)=O)cc1)c1cnc(SCc2c(F)cccc2Cl)n1-c1ccc(F)cc1` [2-{[(2-chloro-6-fluorophenyl)methyl]thio}-1-(4-fluorophenyl)-5-{1-methyl-1-[4-(methylsulfonyl)phenyl]ethyl}-1H-imidazole], the EC50 was in the range of 100 to 1000 nM.

As to `CC(C)(c1ccc(Cl)c(Cl)c1)c1cnc(CS(=O)(=O)c2ccc(F)cc2Cl)n1-c1ccc(F)cc1` [2-{[(2-chloro-4-fluorophenyl)sulfonyl]methyl}-5-[1-(3,4-dichlorophenyl)-1-methylethyl]-1-(4-fluorophenyl)-1H-imidazole], the EC50 was 1000 to 10000 nM.

Turning to `CC(C)(c1ccc(Cl)c(Cl)c1)c1cnc(C(O)CCc2ccc(Cl)cc2Cl)n1-c1ccc(F)cc1` (centres unmarked) [3-(2,4-dichlorophenyl)-1-{5-[1-(3,4-dichlorophenyl)-1-methylethyl]-1-(4-fluorophenyl)-1H-imidazol-2-yl}propan-1-ol], the EC50 is 1000 to 10000 nM.

Regarding `CC(C)(c1ccc(OCC(=O)O)cc1)c1cnc(SCc2c(F)cccc2Cl)n1-c1ccc(F)cc1` [[(4-{1-[2-{[(2-chloro-6-fluorophenyl)methyl]thio}-1-(4-fluorophenyl)-1H-imidazol-5-yl]-1-methylethyl}phenyl)oxy]acetic acid], the EC50 is 1000 to 10000 nM.
